Test: xn = mol fraction of the nth substance listed
Conditions: Liquid, Pycnometric method

COC(=O)OC [dimethyl carbonate] + O=C=O
Conditions | mass density [kg/m3]
313.15 K, 12790 kPa, x1 = 0.1484 | 951
313.15 K, 12900 kPa, x1 = 0.0242 | 816
313.15 K, 12950 kPa, x1 = 0.0481 | 856
313.15 K, 13250 kPa, x1 = 0.118 | 940
313.15 K, 13270 kPa, x1 = 0.0242 | 823
313.15 K, 13310 kPa, x1 = 0.1484 | 955
313.15 K, 13450 kPa, x1 = 0.0481 | 863
313.15 K, 13580 kPa, x1 = 0.086 | 911
313.15 K, 13640 kPa, x1 = 0.0242 | 828
313.15 K, 13730 kPa, x1 = 0.118 | 943
313.15 K, 13790 kPa, x1 = 0.1484 | 957
313.15 K, 13960 kPa, x1 = 0.0242 | 833
313.15 K, 13980 kPa, x1 = 0.0481 | 869
313.15 K, 14120 kPa, x1 = 0.086 | 915
313.15 K, 14140 kPa, x1 = 0.0242 | 836
313.15 K, 14270 kPa, x1 = 0.118 | 947
313.15 K, 14430 kPa, x1 = 0.1484 | 961
313.15 K, 14560 kPa, x1 = 0.0242 | 842
313.15 K, 14620 kPa, x1 = 0.0481 | 877
313.15 K, 14750 kPa, x1 = 0.086 | 920
313.15 K, 14950 kPa, x1 = 0.0242 | 847
313.15 K, 15100 kPa, x1 = 0.1484 | 965
313.15 K, 15210 kPa, x1 = 0.0481 | 882
313.15 K, 15220 kPa, x1 = 0.068 | 924
313.15 K, 15230 kPa, x1 = 0.0242 | 851
313.15 K, 15650 kPa, x1 = 0.1484 | 968
313.15 K, 15900 kPa, x1 = 0.0481 | 890
313.15 K, 15930 kPa, x1 = 0.068 | 930
313.15 K, 16400 kPa, x1 = 0.068 | 933
313.15 K, 16470 kPa, x1 = 0.1484 | 972
317.85 K, 8660 kPa, x1 = 0.0242 | 476
317.85 K, 8710 kPa, x1 = 0.0242 | 485
317.85 K, 8720 kPa, x1 = 0.0242 | 490
317.85 K, 8750 kPa, x1 = 0.0242 | 498
317.85 K, 8780 kPa, x1 = 0.0242 | 506
317.85 K, 8820 kPa, x1 = 0.0242 | 517
317.85 K, 8880 kPa, x1 = 0.0242 | 529
317.85 K, 8930 kPa, x1 = 0.0242 | 542
317.85 K, 9000 kPa, x1 = 0.0242 | 555
317.85 K, 9070 kPa, x1 = 0.0242 | 569
317.85 K, 9150 kPa, x1 = 0.0242 | 583
317.85 K, 9250 kPa, x1 = 0.0242 | 599
317.85 K, 9350 kPa, x1 = 0.0242 | 611
317.85 K, 9500 kPa, x1 = 0.0242 | 628
317.85 K, 9710 kPa, x1 = 0.0242 | 646
317.85 K, 9910 kPa, x1 = 0.0242 | 663
318.15 K, 7340 kPa, x1 = 0.1484 | 884
318.15 K, 7630 kPa, x1 = 0.118 | 856
318.15 K, 7820 kPa, x1 = 0.1484 | 889
318.15 K, 7850 kPa, x1 = 0.118 | 859
318.15 K, 8020 kPa, x1 = 0.086 | 802
318.15 K, 8190 kPa, x1 = 0.118 | 864
318.15 K, 8270 kPa, x1 = 0.1484 | 894
318.15 K, 8410 kPa, x1 = 0.086 | 812
318.15 K, 8550 kPa, x1 = 0.0481 | 683
318.15 K, 8610 kPa, x1 = 0.118 | 870
318.15 K, 8700 kPa, x1 = 0.0481 | 693
318.15 K, 8780 kPa, x1 = 0.1484 | 899
318.15 K, 8830 kPa, x1 = 0.086 | 820
318.15 K, 8880 kPa, x1 = 0.0481 | 706
318.15 K, 9130 kPa, x1 = 0.118 | 876
318.15 K, 9140 kPa, x1 = 0.0481 | 721
318.15 K, 9160 kPa, x1 = 0.086 | 827
318.15 K, 9300 kPa, x1 = 0.1484 | 904
318.15 K, 9450 kPa, x1 = 0.0481 | 735
318.15 K, 9580 kPa, x1 = 0.118 | 882
318.15 K, 9760 kPa, x1 = 0.0481 | 748
318.15 K, 9800 kPa, x1 = 0.1484 | 908
318.15 K, 9810 kPa, x1 = 0.086 | 838
318.15 K, 10180 kPa, x1 = 0.118 | 889
318.15 K, 10200 kPa, x1 = 0.0481 | 758
318.15 K, 10260 kPa, x1 = 0.086 | 845
318.15 K, 10270 kPa, x1 = 0.1484 | 912
318.15 K, 10720 kPa, x1 = 0.1484 | 916
318.15 K, 10740 kPa, x1 = 0.0481 | 777
318.15 K, 10750 kPa, x1 = 0.118 | 895
318.15 K, 10820 kPa, x1 = 0.086 | 853
318.15 K, 11190 kPa, x1 = 0.086 | 858
318.15 K, 11230 kPa, x1 = 0.1484 | 920
318.15 K, 11250 kPa, x1 = 0.0481 | 789
318.15 K, 11280 kPa, x1 = 0.118 | 900
318.15 K, 11720 kPa, x1 = 0.1484 | 924
318.15 K, 11740 kPa, x1 = 0.086 | 865
318.15 K, 11770 kPa, x1 = 0.0481 | 800
318.15 K, 11800 kPa, x1 = 0.118 | 905
318.15 K, 12230 kPa, x1 = 0.086 | 871
318.15 K, 12240 kPa, x1 = 0.0481 | 809
318.15 K, 12260 kPa, x1 = 0.1484 | 928
318.15 K, 12280 kPa, x1 = 0.118 | 909
318.15 K, 12690 kPa, x1 = 0.086 | 876
318.15 K, 12720 kPa, x1 = 0.0481 | 818
318.15 K, 12770 kPa, x1 = 0.118 | 913
318.15 K, 12820 kPa, x1 = 0.1484 | 932
318.15 K, 13270 kPa, x1 = 0.086 | 882
318.15 K, 13280 kPa, x1 = 0.0481 | 826
318.15 K, 13290 kPa, x1 = 0.118 | 918
318.15 K, 13410 kPa, x1 = 0.1484 | 936
318.15 K, 13730 kPa, x1 = 0.0481 | 833
318.15 K, 13750 kPa, x1 = 0.118 | 922
318.15 K, 13840 kPa, x1 = 0.086 | 888
318.15 K, 13900 kPa, x1 = 0.1484 | 939
318.15 K, 14240 kPa, x1 = 0.0481 | 841
318.15 K, 14240 kPa, x1 = 0.118 | 925
318.15 K, 14290 kPa, x1 = 0.086 | 893
318.15 K, 14390 kPa, x1 = 0.1484 | 942
318.15 K, 14710 kPa, x1 = 0.0481 | 847
318.15 K, 14720 kPa, x1 = 0.118 | 929
318.15 K, 14830 kPa, x1 = 0.086 | 898
318.15 K, 15140 kPa, x1 = 0.1484 | 947
318.15 K, 15250 kPa, x1 = 0.118 | 933
318.15 K, 15280 kPa, x1 = 0.086 | 902
318.15 K, 15300 kPa, x1 = 0.0481 | 854
318.15 K, 15760 kPa, x1 = 0.086 | 906
318.15 K, 15770 kPa, x1 = 0.1484 | 950
318.15 K, 15820 kPa, x1 = 0.118 | 937
318.15 K, 16250 kPa, x1 = 0.0481 | 865
318.15 K, 16260 kPa, x1 = 0.118 | 940
318.15 K, 16300 kPa, x1 = 0.086 | 910
318.15 K, 16420 kPa, x1 = 0.1484 | 955
323.15 K, 7960 kPa, x1 = 0.1484 | 862
323.15 K, 8290 kPa, x1 = 0.118 | 829
323.15 K, 8310 kPa, x1 = 0.1484 | 866
323.15 K, 8540 kPa, x1 = 0.118 | 833
323.15 K, 8690 kPa, x1 = 0.086 | 762
323.15 K, 8770 kPa, x1 = 0.1484 | 872
323.15 K, 8880 kPa, x1 = 0.086 | 769
323.15 K, 8960 kPa, x1 = 0.118 | 840
323.15 K, 9020 kPa, x1 = 0.0242 | 394
323.15 K, 9080 kPa, x1 = 0.0242 | 401
323.15 K, 9120 kPa, x1 = 0.0242 | 408
323.15 K, 9170 kPa, x1 = 0.0242 | 417
323.15 K, 9180 kPa, x1 = 0.0481 | 607
323.15 K, 9220 kPa, x1 = 0.086 | 779
323.15 K, 9230 kPa, x1 = 0.0242 | 427
323.15 K, 9250 kPa, x1 = 0.1484 | 877
323.15 K, 9260 kPa, x1 = 0.0481 | 617
323.15 K, 9280 kPa, x1 = 0.0242 | 436
323.15 K, 9310 kPa, x1 = 0.118 | 845
323.15 K, 9350 kPa, x1 = 0.0242 | 447
323.15 K, 9410 kPa, x1 = 0.0242 | 458
323.15 K, 9410 kPa, x1 = 0.0481 | 638
323.15 K, 9480 kPa, x1 = 0.0242 | 470
323.15 K, 9550 kPa, x1 = 0.0242 | 482
323.15 K, 9570 kPa, x1 = 0.0481 | 650
